How the values were obtained:
[1] = target: T1, MPO (Homo sapiens, UniProt P05164); test: Amplex Red assay of MPO peroxidase activity; type: biochemical; conditions: for IC50: Amplex Red assay, t = 30 min, 100 pM MPO, 1 µM H2O2
T1 sequence (P05164 49-745): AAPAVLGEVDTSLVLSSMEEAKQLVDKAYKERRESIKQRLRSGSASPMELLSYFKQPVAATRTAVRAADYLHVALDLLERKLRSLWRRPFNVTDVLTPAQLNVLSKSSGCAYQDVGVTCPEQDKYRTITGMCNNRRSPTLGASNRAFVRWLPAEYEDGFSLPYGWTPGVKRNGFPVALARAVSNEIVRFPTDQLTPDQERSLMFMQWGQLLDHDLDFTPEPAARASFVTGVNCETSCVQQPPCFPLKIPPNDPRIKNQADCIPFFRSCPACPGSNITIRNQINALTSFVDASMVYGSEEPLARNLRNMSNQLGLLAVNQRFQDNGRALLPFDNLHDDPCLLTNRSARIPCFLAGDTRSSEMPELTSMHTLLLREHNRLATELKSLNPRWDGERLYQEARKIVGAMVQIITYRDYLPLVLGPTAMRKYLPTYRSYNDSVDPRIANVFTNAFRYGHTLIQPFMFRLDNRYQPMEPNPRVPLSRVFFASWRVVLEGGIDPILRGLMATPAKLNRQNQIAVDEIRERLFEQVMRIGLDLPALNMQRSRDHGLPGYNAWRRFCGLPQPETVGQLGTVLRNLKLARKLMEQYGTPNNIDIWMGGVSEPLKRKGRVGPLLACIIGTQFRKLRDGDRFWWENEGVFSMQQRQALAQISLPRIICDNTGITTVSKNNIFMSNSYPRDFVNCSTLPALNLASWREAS
Excerpt: Having obtained the fluorescent properties of probes 1-6, we determined their functional properties by the Amplex Red assay as previously reported (Table 1, Supplementary Figs. 1-6)[27]. In this assay, 10-acetyl-3,7-dihydroxyphenoxazine is oxidized by MPO in the presence of H2O2 to resorufin, a highly fluorescent compound with an fluorescence excitation and emission maxima of 571 and 585 nm, respectively. Fortunately, probes 1, 2, 4, 5, and 6 retained similar IC50 values as those previously reported for 2-thioxanthine-based inhibitors despite the presence of the environment-sensitive fluorophores[27],[33]. However, we noticed a slight negative trend in the IC50 of probes containing the shorter ethyl spacer. This effect was more evident in probe 3, which experienced a ~ 4-fold reduction in IC50 values compared to its counterpart probe 4.
MPO peroxidase activity and the determination of inhibitor potencies were performed as described before with minimal changes. In brief, to 78 uL of assay mixture (PBS (pH 7.4), 1 µM H2O2, and 20 µM Amplex Red) were added 2 μL of probe 1-6 in concentrations from 0 to 40 µM in DMSO (final DMSO concentration of 2%) and mixed for 1 min. The reactions were initiated by the addition of 20 μL 500 pM MPO (final MPO concentration of 100 pM) followed by mixing for 5 s. Fluorescent changes (RFU/s) were monitored at room temperature every 20 s for 30 min with excitation and emission filters set at 530 and 580 nm, respectively. Initial rates (V0) were determined using linear regression analysis of the first 600 s corresponding to the linear range of the DMSO control. To calculate IC50 values, V0 and probe concentration were fit to a dose-response curve with a standard Hill slope of -1 using nonlinear regression analysis. The kobs, kinact, and KI values for probe 1 were calculated exactly as described before.

[2] = Chemical stability in cell culture media (HPLC); type: physicochemical; conditions: cell culture media with or without serum, 4 and 24 h, 37 °C
Protocol: (§1) Furthermore, we confirmed the chemical stability of probe 1 in cell culture media with or without serum for 4 and 24 h at 37 °C (Supplementary Fig. 7).
(§2) To a stirring solution of the corresponding N-Boc aldehyde B1 or B2 (7.6 mmol) and AcOH (1.2 mmol) in dry CH3OH (30 mL) was added 4-amino-1H-imidazole-5-carboxamide (6.0 mmol). The reaction was stirred for 2.5 h under N2 before NaBH3CN (7.2 mmol) was added in one portion and the mixture was left stirring overnight under N 2. A solution of sat. aq. NaHCO3 was added and most of the CH3OH was removed in vacuo. The residue was extracted with EtOAc and the combined organic layers were dried over MgSO 4, filtered, and the crude product purified by flash silica gel column chromatog raphy (0-10% CH3OH/CH2Cl2) to give C1 or C2. […]
(§3) The solutions were incubated for 5 min and the fluorescence emission spectra was measured between 480 and 600 nm. […]
(§4) Probe 1 was diluted to 400 µM and incubated in CH3CN, RPMI 1640, or RPMI 1640 supplemented with 2% FCS for 0, 4, and 24 h at 37 °C under constant shaking. […] The supernatant was filtered and analyzed by HPLC. […]
(§5) Differentiation was assessed morphologically by fluorescent nuclear staining (Hoechst 33342) and by evaluation of CD11b expre ssion with a rat primary antibody directed against human CD11b (M1/70, Invitrogen, 1:400, 30 min, 4 °C) using a BD FACSVerse Flow Cytometer. Data were analyzed with FlowJo. […]

[3] = target: T1, MPO; test: Fluorescence turn-on of probe with purified MPO; type: biochemical; conditions: 1 µM probe, 15 µM MPO, 150 µM H2O2, PBS (pH 7.4)
Protocol: as §1, §2, §3, §4, §5

[4] = Fluorescence excitation and emission spectra in solvents of different polarity; type: physicochemical; conditions: for fluorescence increase in CH2Cl2 compared to PBS buffer (pH 7.4): approximate values
Protocol: To validate the solvatochromic properties of the probes, we recorded the fluorescence excitation and emission spectra of probes 1-6 in a 10 μM solution in CH2Cl2, CH3CN, CH3OH, and PBS buffer (pH 7.4, Table 1, Supplementary Table 1). These solvents have different polarities thereby emulating the hydrophobic enzyme-probe binding site environment (Supplementary Figs. 1-6). […] This effect was less prominent for 3 and 4 with a ~ 110-fold fluorescence increase, and for 5 and 6 with a ~ 30-fold fluorescence increase.
Probes 1-6 were prepared into 10 mM DMSO stock solutions and diluted to 10 μM with CH2Cl2, CH3CN, CH3OH, or PBS (pH 7.4). The fluorescence excitation spectra of each probe was measured between 300 and 480 nm for probes 1-4 and 300 and 500 nm for probes 5 and 6. The fluorescence emission spectra of each probe was measured between 480 and 700 nm for probes 1-4 and 500 and 700 nm for probes 5 and 6.

[5] = system: MPO activity in human polymorphonuclear neutrophils (hPMN); test: Wash-free live-cell imaging of probes in hPMN during NETosis; type: cell-based; conditions: 100 nM PMA, probe near IC50, 3 h, 37 °C; for MFI (mean fluorescence intensity): whole images
Protocol: With probes 1-6 in hand, we opted for a cell-based screening strategy to find suitable probes to image MPO activity during NETosis (Fig. 1A). In this approach, we stimulated freshly isolated human polymorphonuclear neutrophils (hPMN) with PMA and incubated with probes 1-6 at concentrations near their IC50 for 3 h. […] Subsequently, probes that show a significant ‘’turn-on” fluorescence compared to unstimulated cells are selected and tested for colocalization with an anti-MPO antibody in fixed cells. With this cell-based strategy, potential suitable probes to image MPO activity during NETosis can be immediately identified. Therefore, live hPMN were incubated with PMA and probes 1-6 and imaged directly (Fig. 1B).
Colocalization analysis was performed with JaCoP[34].

[6] = system: MPO activity in human polymorphonuclear neutrophils (hPMN); test: as above; type: cell-based; conditions: 4 µM ionomycin, 1 µM probe, 3 h
[7] = from kobs vs probe concentration

Row | SMILES | kinact/KI [1] [M^−^1s^−^1] | IC50 [1] [nM] | Ki [1, 7] [nM] | kinact [1, 7] [s^−^1] | chemical stability [2] | fluorescence increase with MPO compared to probe alone, ABAH pre-treated MPO or BSA [3] | fluorescence increase in CH2Cl2 compared to PBS buffer (pH 7.4) ([4]; 10 μM) | λem ([4]; CH2Cl2, 10 μM) [nm] | λex ([4]; CH2Cl2, 10 μM) [nm] | λem ([4]; PBS (pH 7.4), 10 μM) [nm] | λex ([4]; PBS (pH 7.4), 10 μM) [nm] | S/B (signal-to-background ratio) [5] | MFI (mean fluorescence intensity) [5] [gray values] | probe signal in ionomycin-stimulated cells [6] | fluorescence increase at λem in CH2Cl2 compared to PBS (pH 7.4) ([4]; supplementary figure legends) [x]
1 | CN(C)S(=O)(=O)c1ccc(NCCn2c(=S)[nH]c(=O)c3[nH]cnc32)c2nonc12 [Probe 3] |  | 4570 ± 1830 |  |  |  |  | ~ 110 fold | 532 | 417 | 600 | 435 | 8.9 | 1.5 |  | 
2 | CN(C)S(=O)(=O)c1ccc(NCCOCCn2c(=S)[nH]c(=O)c3[nH]cnc32)c2nonc12 [Probe 4] |  | 1090 ± 151 |  |  |  |  | ~ 110 fold | 535 | 420 | 600 | 435 | 7.3 | 1.8 |  | 
3 | O=c1[nH]c(=S)n(CCNc2ccc([N+](=O)[O-])c3nonc23)c2nc[nH]c12 [Probe 5] |  | 497 ± 86 |  |  |  |  | ~ 30 fold | 522 | 452 | 558 | 473 |  | < 0.1 |  | 40
4 | O=c1[nH]c(=S)n(CCOCCNc2ccc([N+](=O)[O-])c3nonc23)c2nc[nH]c12 [Probe 6] |  | 388 ± 35 |  |  |  |  | ~ 30 fold | 517 | 452 | 558 | 488 |  | < 0.1 |  | 

Now from value to compound, other results behind:

Row | kinact/KI [1] [M^−^1s^−^1] | IC50 [1] [nM] | Ki [1, 7] [nM] | kinact [1, 7] [s^−^1] | chemical stability [2] | fluorescence increase with MPO compared to probe alone, ABAH pre-treated MPO or BSA [3] | fluorescence increase in CH2Cl2 compared to PBS buffer (pH 7.4) ([4]; 10 μM) | λem ([4]; CH2Cl2, 10 μM) [nm] | λex ([4]; CH2Cl2, 10 μM) [nm] | λem ([4]; PBS (pH 7.4), 10 μM) [nm] | λex ([4]; PBS (pH 7.4), 10 μM) [nm] | SMILES | S/B (signal-to-background ratio) [5] | MFI (mean fluorescence intensity) [5] [gray values] | probe signal in ionomycin-stimulated cells [6] | fluorescence increase at λem in CH2Cl2 compared to PBS (pH 7.4) ([4]; supplementary figure legends) [x]
5 | 4263 | 854 ± 44 | 1080 ± 73 | 0.0046 ± 0.0001 | chemically stable | ~ 13 fold | ~ 300 fold | 510 | 415 | 560 | 457 | CN(C)c1ccc2c3c(cccc13)C(=O)N(CCn1c(=S)[nH]c(=O)c3[nH]cnc31)C2=O [Probe 1] | 16.7 | 6.9 | not significantly different from unstimulated background levels | 
6 |  | 479 ± 17 |  |  |  |  | ~ 300 fold | 512 | 415 | 560 | 446 | CN(C)c1ccc2c3c(cccc13)C(=O)N(CCOCCn1c(=S)[nH]c(=O)c3[nH]cnc31)C2=O [Probe 2] | 11.7 | 3.0 |  | 

— publication PMC11557929, “Environment-sensitive turn-on fluorescent probe enables live cell imaging of myeloperoxidase activity during NETosis” (Communications Chemistry, 2024)
